Numbers after ± are expanded uncertainties.
Key:
[1] = xn = mol fraction of the nth substance listed; settings: 100.8 kPa, Liquid; for viscosity: Capillary tube (Ostwald / Ubbelohde) method
[2] = refractive index (Na D-line) (dimensionless); xn = mol fraction of the nth substance listed; settings: 100.8 kPa, Liquid, Standard Abbe refractometry

CC(C)CC(C)(C)C [2,2,4-trimethylpentane] + CC(C)=O
Settings	mass density, 288.15 K [kg/m3]	mass density, 298.15 K [kg/m3]	mass density, 308.15 K [kg/m3]	refractive index, 288.15 K	refractive index, 298.15 K	refractive index, 308.15 K	viscosity, 288.15 K [mPa·s]	viscosity, 298.15 K [mPa·s]	viscosity, 308.15 K [mPa·s]
[1], x2 = 0	695.95 ± 0.31	687.74 ± 0.31	679.41 ± 0.32	–	–	–	0.537 ± 0.005	0.48 ± 0.004	0.432 ± 0.004
[1], x2 = 0.0499	697.34 ± 0.31	688.89 ± 0.31	680.44 ± 0.32	–	–	–	0.519 ± 0.005	0.465 ± 0.004	0.42 ± 0.004
[1], x2 = 0.1	698.86 ± 0.31	690.36 ± 0.31	681.77 ± 0.32	–	–	–	0.505 ± 0.004	0.452 ± 0.004	0.408 ± 0.004
[1], x2 = 0.15	700.68 ± 0.3	692.07 ± 0.31	683.36 ± 0.32	–	–	–	0.492 ± 0.004	0.44 ± 0.004	0.397 ± 0.004
[1], x2 = 0.2	702.68 ± 0.3	693.98 ± 0.31	685.16 ± 0.31	–	–	–	0.479 ± 0.004	0.429 ± 0.004	0.387 ± 0.004
[1], x2 = 0.25	705.09 ± 0.3	696.24 ± 0.31	687.26 ± 0.31	–	–	–	0.468 ± 0.004	0.419 ± 0.004	0.378 ± 0.003
[1], x2 = 0.3	707.68 ± 0.3	698.7 ± 0.3	689.56 ± 0.31	–	–	–	0.456 ± 0.004	0.409 ± 0.004	0.369 ± 0.003
[1], x2 = 0.35	710.55 ± 0.29	701.44 ± 0.3	692.21 ± 0.31	–	–	–	0.446 ± 0.004	0.399 ± 0.004	0.361 ± 0.003
[1], x2 = 0.4	713.76 ± 0.29	704.51 ± 0.3	695.1 ± 0.31	–	–	–	0.436 ± 0.004	0.39 ± 0.004	0.353 ± 0.003
[1], x2 = 0.45	717.31 ± 0.29	707.86 ± 0.3	698.29 ± 0.3	–	–	–	0.426 ± 0.004	0.382 ± 0.004	0.346 ± 0.003
[1], x2 = 0.5	721.15 ± 0.29	711.61 ± 0.29	701.91 ± 0.3	–	–	–	0.416 ± 0.004	0.374 ± 0.003	0.338 ± 0.003
[1], x2 = 0.55	725.46 ± 0.28	715.73 ± 0.29	705.86 ± 0.3	–	–	–	0.407 ± 0.004	0.366 ± 0.003	0.332 ± 0.003
[1], x2 = 0.6	730.17 ± 0.28	720.32 ± 0.29	710.3 ± 0.29	–	–	–	0.398 ± 0.004	0.358 ± 0.003	0.325 ± 0.003
[1], x2 = 0.65	735.45 ± 0.27	725.44 ± 0.28	715.27 ± 0.29	–	–	–	0.389 ± 0.004	0.35 ± 0.003	0.318 ± 0.003
[1], x2 = 0.7	741.35 ± 0.27	731.16 ± 0.28	720.79 ± 0.28	–	–	–	0.38 ± 0.003	0.343 ± 0.003	0.312 ± 0.003
[1], x2 = 0.75	747.84 ± 0.26	737.51 ± 0.27	727.01 ± 0.28	–	–	–	0.372 ± 0.003	0.336 ± 0.003	0.306 ± 0.003
[1], x2 = 0.8	755.3 ± 0.26	744.71 ± 0.27	733.99 ± 0.27	–	–	–	0.364 ± 0.003	0.329 ± 0.003	0.299 ± 0.003
[1], x2 = 0.85	763.58 ± 0.25	752.89 ± 0.26	742.02 ± 0.27	–	–	–	0.356 ± 0.003	0.322 ± 0.003	0.293 ± 0.003
[1], x2 = 0.9	773.12 ± 0.24	762.22 ± 0.25	751.12 ± 0.26	–	–	–	0.348 ± 0.003	0.315 ± 0.003	0.287 ± 0.003
[1], x2 = 0.95	784.18 ± 0.24	773.02 ± 0.24	761.68 ± 0.25	–	–	–	0.341 ± 0.003	0.309 ± 0.003	0.281 ± 0.003
[2], x2 = 0	–	–	–	1.39404 ± 0.00031	1.389 ± 0.00031	1.38395 ± 0.00031	–	–	–
[2], x2 = 0.0499	–	–	–	1.39283 ± 0.00031	1.38765 ± 0.00031	1.38256 ± 0.00031	–	–	–
[2], x2 = 0.1	–	–	–	1.39158 ± 0.00031	1.38634 ± 0.00031	1.38119 ± 0.00031	–	–	–
[2], x2 = 0.15	–	–	–	1.39031 ± 0.00031	1.38501 ± 0.00031	1.37981 ± 0.00031	–	–	–
[2], x2 = 0.2	–	–	–	1.38905 ± 0.00031	1.38374 ± 0.00031	1.37848 ± 0.00031	–	–	–
[2], x2 = 0.25	–	–	–	1.38769 ± 0.00031	1.3824 ± 0.00031	1.3771 ± 0.00031	–	–	–
[2], x2 = 0.3	–	–	–	1.3864 ± 0.00031	1.3811 ± 0.00031	1.37574 ± 0.00031	–	–	–
[2], x2 = 0.35	–	–	–	1.38509 ± 0.00031	1.37975 ± 0.00031	1.37434 ± 0.00031	–	–	–
[2], x2 = 0.4	–	–	–	1.38374 ± 0.00031	1.37833 ± 0.00031	1.3729 ± 0.00031	–	–	–
[2], x2 = 0.45	–	–	–	1.38233 ± 0.00031	1.37687 ± 0.00031	1.37142 ± 0.00031	–	–	–
[2], x2 = 0.5	–	–	–	1.38086 ± 0.00031	1.37538 ± 0.00031	1.36989 ± 0.00031	–	–	–
[2], x2 = 0.55	–	–	–	1.37934 ± 0.00031	1.37379 ± 0.00031	1.36831 ± 0.00031	–	–	–
[2], x2 = 0.6	–	–	–	1.37774 ± 0.00031	1.37219 ± 0.00031	1.36666 ± 0.00031	–	–	–
[2], x2 = 0.65	–	–	–	1.37606 ± 0.00031	1.3705 ± 0.00031	1.36495 ± 0.00031	–	–	–
[2], x2 = 0.7	–	–	–	1.3743 ± 0.00031	1.3687 ± 0.00031	1.36314 ± 0.00031	–	–	–
[2], x2 = 0.75	–	–	–	1.37243 ± 0.00031	1.36683 ± 0.00031	1.36126 ± 0.00031	–	–	–
[2], x2 = 0.8	–	–	–	1.37045 ± 0.00031	1.36486 ± 0.00031	1.35931 ± 0.00031	–	–	–
[2], x2 = 0.85	–	–	–	1.36839 ± 0.00031	1.36279 ± 0.00031	1.35726 ± 0.00031	–	–	–
[2], x2 = 0.9	–	–	–	1.36624 ± 0.00031	1.36064 ± 0.00031	1.3551 ± 0.00031	–	–	–
[2], x2 = 0.95	–	–	–	1.36394 ± 0.00031	1.35838 ± 0.00031	1.35285 ± 0.00031	–	–	–

— the NIST ThermoML archive (doi:10.1021/je050010l)
